Reference: US20240287079A1, “6-AMINOPYRAZOLOPYRIMIDINE COMPOUND AND PHARMACEUTICAL USE THEREOF” (Japan Tobacco Inc., priority 2021, published 2024)

What follows are molecules tested against NLRP3 inflammasome (Homo sapiens (Human), UniProt Q96P20) (assay: Evaluation of NLRP3 inflammasome inhibitory activity (inhibition of IL-1β production in LPS/Nigericin-stimulated THP1-Null cells)). Conditions: IL-1β production in THP1-Null cells, PMA, LPS 1 μg/mL, Nigericin 7.5 μmol/L, AlphaLISA.
Sequence of NLRP3 inflammasome (Q96P20 whole entry): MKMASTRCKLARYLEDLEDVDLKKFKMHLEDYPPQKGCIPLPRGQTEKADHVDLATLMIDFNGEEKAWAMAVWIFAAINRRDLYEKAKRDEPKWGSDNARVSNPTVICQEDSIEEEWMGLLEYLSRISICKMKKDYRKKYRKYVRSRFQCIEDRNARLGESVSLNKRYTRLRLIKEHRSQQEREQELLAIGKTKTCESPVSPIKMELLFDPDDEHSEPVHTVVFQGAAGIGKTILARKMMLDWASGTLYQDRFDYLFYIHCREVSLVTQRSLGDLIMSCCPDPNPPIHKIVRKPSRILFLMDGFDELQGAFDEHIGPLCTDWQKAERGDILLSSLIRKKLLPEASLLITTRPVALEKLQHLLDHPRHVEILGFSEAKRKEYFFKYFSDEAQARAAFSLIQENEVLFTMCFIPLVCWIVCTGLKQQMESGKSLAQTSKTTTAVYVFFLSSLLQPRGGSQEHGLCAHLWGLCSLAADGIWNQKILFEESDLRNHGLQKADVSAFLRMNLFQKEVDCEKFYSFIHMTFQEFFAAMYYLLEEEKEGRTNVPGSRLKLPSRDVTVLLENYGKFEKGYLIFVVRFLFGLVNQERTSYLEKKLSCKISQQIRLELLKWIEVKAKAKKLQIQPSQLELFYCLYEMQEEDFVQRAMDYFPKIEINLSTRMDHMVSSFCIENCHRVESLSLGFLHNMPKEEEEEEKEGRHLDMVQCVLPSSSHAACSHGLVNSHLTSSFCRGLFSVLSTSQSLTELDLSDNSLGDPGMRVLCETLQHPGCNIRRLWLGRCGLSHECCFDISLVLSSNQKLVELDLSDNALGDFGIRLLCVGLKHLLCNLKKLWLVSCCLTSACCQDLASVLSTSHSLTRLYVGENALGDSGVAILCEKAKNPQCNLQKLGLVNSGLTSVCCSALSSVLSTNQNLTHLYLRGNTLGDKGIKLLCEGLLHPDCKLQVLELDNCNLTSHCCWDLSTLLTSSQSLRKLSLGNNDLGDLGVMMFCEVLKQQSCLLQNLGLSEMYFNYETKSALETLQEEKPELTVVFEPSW
Format: cell-based
Protocol: The NLRP3 inflammasome inhibitory activity of test compounds were evaluated on the basis of the inhibitory activity of the IL-1β production in THP1-Null cells (Product Number: thp-null, InvivoGen). […] The supernatant of the culture was removed, and thereto was added media for assay (25 μL/well) containing 1 μg/mL Lipopolysaccharides (Product Number: L2654, Sigma-Aldrich (registered trademark)). […] The supernatant of the culture was removed. […] A solution containing a test compound (20 μL/well) was added to test compound-setting wells. […] The supernatant of the culture was cryonically stored (set at −20° C.) until measurement of IL-1β.
The amount of IL-1β in the culture supernatant was quantitated with AlphaLISA(registered trademark) Human IL-1β Detection Kit (Product Number: AL220C, Perkin Elmer). Fluorescence intensity was measured with a microplate reader EnSpier (Model number: 2300-00J, Perkin Elmer) or EnSight(Model number: HH34000000, Perkin Elmer) according to procedure manuals attached thereto. Inhibition rates of the test compound-setting wells were calculated on the basis of 100% for the blank-setting wells and 0% for the control-setting wells.
`Cc1ccccc1-n1cc2c(=O)[nH]c(N3CCC3(C)C)nc2n1` [Example 39] showed an IC50 of 7100 nM. Molecule `Cc1ccc(-n2cc3c(=O)[nH]c(N4CCCC4)nc3n2)cc1` [Example 40] has an IC50 of 770 nM. For `COC[C@H]1CCCN1c1nc2nn(-c3ccccc3C)cc2c(=O)[nH]1` [Example 41], the IC50 was 4100 nM. In the case of `COC[C@@H]1CCCN1c1nc2nn(-c3ccccc3C)cc2c(=O)[nH]1` [Example 42], the IC50 is reported as 4200 nM. With `Cc1cccc(-n2cc3c(=O)[nH]c(N4CCCC4)nc3n2)c1` [Example 43] the IC50 was 3400 nM. `Cc1ccc(-n2cc3c(=O)[nH]c(N4CCCC4)nc3n2)c(C)c1` [Example 45] was tested, and the IC50 was 70 nM. `Cc1ccc(C)c(-n2cc3c(=O)[nH]c(N4CCCC4)nc3n2)c1` [Example 46] was tested, and the IC50 was 290 nM. Work on `Cc1cccc(-n2cc3c(=O)[nH]c(N4CCCC4)nc3n2)c1C` [Example 47] yielded an IC50 of 230 nM. Molecule `O=c1[nH]c(N2CCCC2)nc2nn(-c3ccc(C(F)(F)F)cc3)cc12` [Example 49] has an IC50 of 340 nM. `COC1CN(c2nc3nn(-c4c(C)cccc4C)cc3c(=O)[nH]2)C1` [Example 50] gave an IC50 of 1200 nM. `Cc1cccc(C)c1-n1cc2c(=O)[nH]c(N3CC(OCC(F)(F)F)C3)nc2n1` [Example 51] was tested, and the IC50 was 2200 nM. `Cc1ccc(-n2cc3c(=O)[nH]c(N4CCCC4)nc3n2)cc1C` [Example 52] gave an IC50 of 2100 nM. Work on `Cc1cccc(C)c1-n1cc2c(=O)[nH]c(N3CC(C(F)(F)F)C3)nc2n1` [Example 53] yielded an IC50 of 750 nM. In the case of `Cc1ccc(-n2nc3nc(N4CCCC4)[nH]c(=O)c3c2C)c(C)c1` [Example 55], the IC50 is reported as 230 nM. In the case of `Cc1ccc(-n2cc3c(=O)[nH]c(N4CCOCC4)nc3n2)c(C)c1` [Example 58], the IC50 is reported as 120 nM. `COC1CN(c2nc3nn(-c4ccc(C)cc4C)cc3c(=O)[nH]2)C1` [Example 59] was tested, and the IC50 was 370 nM. Work on `COCCNc1nc2nn(-c3ccc(C)cc3C)cc2c(=O)[nH]1` [Example 60] yielded an IC50 of 240 nM. For `CCCCNc1nc2nn(-c3ccccc3C)cc2c(=O)[nH]1` [Example 61], the IC50 was 680 nM. In the case of `Cc1cc(Br)ccc1-n1cc2c(=O)[nH]c(N3CCCC3)nc2n1` [Example 62], the IC50 is reported as 9.1 nM. `Cc1cc(C)c(-n2cc3c(=O)[nH]c(N4CCCC4)nc3n2)c(C)c1` [Example 63] was tested, and the IC50 was 17 nM. In the case of `Cc1cc(C)cc(-n2cc3c(=O)[nH]c(N4CCCC4)nc3n2)c1` [Example 64], the IC50 is reported as 290 nM. With `CNc1nc2nn(-c3ccc(C)cc3C)cc2c(=O)[nH]1` [Example 65] the IC50 was 80 nM. `CC(=O)N(C)c1nc2nn(-c3ccc(C)cc3C)cc2c(=O)[nH]1` [Example 66] gave an IC50 of 4300 nM. With `Cc1cc(C2=CCCCC2)ccc1-n1cc2c(=O)[nH]c(N3CCCC3)nc2n1` [Example 67] the IC50 was 2300 nM. `O=c1[nH]c(N2CCCC2)nc2nn(-c3cccc4ccccc34)cc12` [Example 68] gave an IC50 of 1200 nM. Molecule `Cc1cc(Br)ccc1-n1cc2c(=O)[nH]c(N3CCOCC3)nc2n1` [Example 69] has an IC50 of 24 nM. Work on `Cc1cc(C#N)ccc1-n1cc2c(=O)[nH]c(N3CCCC3)nc2n1` [Example 71] yielded an IC50 of 1200 nM. `CC(=O)N1CCN(c2nc3nn(-c4ccc(Br)cc4C)cc3c(=O)[nH]2)CC1` [Example 73] was tested, and the IC50 was 8.2 nM. In the case of `Cc1cc(Br)ccc1-n1cc2c(=O)[nH]c(NCc3ccccc3)nc2n1` [Example 74], the IC50 is reported as 25 nM. `Cc1cc(Br)ccc1-n1cc2c(=O)[nH]c(N3Cc4ccccc4C3)nc2n1` [Example 75] showed an IC50 of 14 nM. Molecule `Cc1cc(Br)ccc1-n1cc2c(=O)[nH]c(N3CC(F)(F)C3)nc2n1` [Example 76] has an IC50 of 4.8 nM. Work on `Cc1cc(Br)cnc1-n1cc2c(=O)[nH]c(N3CCCC3)nc2n1` [Example 77] yielded an IC50 of 49 nM. For `Cc1cc(Br)ccc1-n1cc2c(=O)[nH]c(N3CCNC(=O)C3)nc2n1` [Example 78], the IC50 was 28 nM. Work on `Cc1cc(Br)ccc1-n1cc2c(=O)[nH]c(N3CCS(=O)(=O)CC3)nc2n1` [Example 79] yielded an IC50 of 5.9 nM. `CNc1nc2nn(-c3ccc(C)cc3C)cc2c(=O)n1C` [Example 80] showed an IC50 of 570 nM.

Same assay, conditions: IL-1β production in THP1-Null cells; test compound 24 μM
`Cc1ccccc1-n1cc2c(=O)[nH]c(Nc3c4c(cc5c3CCC5)CCC4)nc2n1` [Example 44] gave an inhibition at 24 µM of 21%.
